Reference: ChEMBL document CHEMBL5608242 (J Med Chem, 2024)

Legend:
Histone deacetylase 1 [1] = target: T1, Histone deacetylase 1 (Homo sapiens, UniProt Q13547); assay: biochemical
[2] = target: Histone deacetylase 3/Nuclear receptor corepressor 2 (HDAC3/NCoR2) (Homo sapiens, UniProt O15379); assay: biochemical
[3] = target: T2, Protein deacetylase HDAC6 (Homo sapiens, UniProt Q9UBN7); assay: biochemical
T2 sequence (Q9UBN7 whole entry): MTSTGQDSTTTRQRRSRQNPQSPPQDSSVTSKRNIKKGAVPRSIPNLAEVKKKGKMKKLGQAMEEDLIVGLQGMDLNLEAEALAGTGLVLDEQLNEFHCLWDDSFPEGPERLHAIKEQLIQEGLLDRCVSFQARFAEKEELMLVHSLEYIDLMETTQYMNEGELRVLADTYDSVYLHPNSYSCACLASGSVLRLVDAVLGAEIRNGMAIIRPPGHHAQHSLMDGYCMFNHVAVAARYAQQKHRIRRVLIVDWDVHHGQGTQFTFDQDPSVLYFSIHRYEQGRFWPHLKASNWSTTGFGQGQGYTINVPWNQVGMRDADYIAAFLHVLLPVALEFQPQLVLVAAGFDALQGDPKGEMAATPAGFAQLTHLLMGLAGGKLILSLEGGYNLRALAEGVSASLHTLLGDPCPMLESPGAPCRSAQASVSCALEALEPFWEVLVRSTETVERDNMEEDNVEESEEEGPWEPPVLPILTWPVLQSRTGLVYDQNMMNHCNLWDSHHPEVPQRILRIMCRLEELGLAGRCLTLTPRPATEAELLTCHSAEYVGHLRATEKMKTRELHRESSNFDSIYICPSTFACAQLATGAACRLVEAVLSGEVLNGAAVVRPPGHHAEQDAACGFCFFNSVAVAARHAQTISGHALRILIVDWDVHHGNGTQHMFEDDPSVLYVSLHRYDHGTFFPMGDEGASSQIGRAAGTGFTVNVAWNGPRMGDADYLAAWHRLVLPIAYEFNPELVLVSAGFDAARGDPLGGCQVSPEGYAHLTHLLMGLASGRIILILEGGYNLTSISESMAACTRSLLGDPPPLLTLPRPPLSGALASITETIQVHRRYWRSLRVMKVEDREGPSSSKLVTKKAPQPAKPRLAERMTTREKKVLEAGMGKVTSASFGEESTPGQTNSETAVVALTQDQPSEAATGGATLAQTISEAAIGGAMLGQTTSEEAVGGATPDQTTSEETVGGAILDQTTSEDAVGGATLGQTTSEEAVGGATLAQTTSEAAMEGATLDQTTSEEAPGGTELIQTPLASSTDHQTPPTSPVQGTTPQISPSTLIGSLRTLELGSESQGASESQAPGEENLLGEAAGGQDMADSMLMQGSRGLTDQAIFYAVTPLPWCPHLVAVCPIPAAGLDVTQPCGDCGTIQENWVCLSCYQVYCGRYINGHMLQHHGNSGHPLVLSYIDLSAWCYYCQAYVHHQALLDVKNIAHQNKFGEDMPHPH

Histone deacetylase 2 = Histone deacetylase 2 (Homo sapiens, UniProt Q92769); assay: biochemical
[4] = target: T3, Amine oxidase [flavin-containing] B (Homo sapiens, UniProt P27338); details: read-out: INH
T3 sequence (P27338 whole entry): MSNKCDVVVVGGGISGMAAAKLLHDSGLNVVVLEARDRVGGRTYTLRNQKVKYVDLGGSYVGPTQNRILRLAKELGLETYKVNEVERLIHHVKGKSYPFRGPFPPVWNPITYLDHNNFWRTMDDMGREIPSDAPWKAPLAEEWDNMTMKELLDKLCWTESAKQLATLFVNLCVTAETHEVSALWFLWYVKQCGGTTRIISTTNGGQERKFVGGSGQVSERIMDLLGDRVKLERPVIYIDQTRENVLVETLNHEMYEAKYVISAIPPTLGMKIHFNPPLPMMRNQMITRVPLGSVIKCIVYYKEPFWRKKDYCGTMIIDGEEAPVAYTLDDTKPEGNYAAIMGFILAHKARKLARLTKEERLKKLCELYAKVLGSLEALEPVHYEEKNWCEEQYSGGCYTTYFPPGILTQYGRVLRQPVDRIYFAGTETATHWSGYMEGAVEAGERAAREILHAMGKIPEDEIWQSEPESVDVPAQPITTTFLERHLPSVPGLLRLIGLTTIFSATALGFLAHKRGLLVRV
Description: Inhibition of human recombinant MAO-B using para-tyramine as substrate at 1 uM by Amplex Red fluorimetric assay relative to control

Histone deacetylase 1 [5] = target: T1, Histone deacetylase 1; assay: biochemical; remark: listed apart in the source
Cholinesterase = Cholinesterase (Equus caballus, UniProt P81908)
Chain of Cholinesterase (P81908 whole entry): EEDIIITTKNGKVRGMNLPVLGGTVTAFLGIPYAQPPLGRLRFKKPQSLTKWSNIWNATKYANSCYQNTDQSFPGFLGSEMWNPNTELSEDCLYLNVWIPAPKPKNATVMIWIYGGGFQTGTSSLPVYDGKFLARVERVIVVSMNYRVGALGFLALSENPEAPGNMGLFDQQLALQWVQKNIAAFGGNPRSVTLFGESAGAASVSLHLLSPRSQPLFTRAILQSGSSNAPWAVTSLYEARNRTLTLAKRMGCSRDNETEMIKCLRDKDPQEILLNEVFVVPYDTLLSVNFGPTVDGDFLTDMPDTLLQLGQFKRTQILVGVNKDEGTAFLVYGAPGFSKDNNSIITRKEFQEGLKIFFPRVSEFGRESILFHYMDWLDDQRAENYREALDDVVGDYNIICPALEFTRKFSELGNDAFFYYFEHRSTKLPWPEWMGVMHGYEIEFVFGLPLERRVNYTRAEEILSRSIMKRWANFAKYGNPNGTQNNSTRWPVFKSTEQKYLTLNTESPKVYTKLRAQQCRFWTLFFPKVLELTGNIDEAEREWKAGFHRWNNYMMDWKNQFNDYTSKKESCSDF

Chain of Histone deacetylase 3/Nuclear receptor corepressor 2 (HDAC3/NCoR2) (O15379 whole entry): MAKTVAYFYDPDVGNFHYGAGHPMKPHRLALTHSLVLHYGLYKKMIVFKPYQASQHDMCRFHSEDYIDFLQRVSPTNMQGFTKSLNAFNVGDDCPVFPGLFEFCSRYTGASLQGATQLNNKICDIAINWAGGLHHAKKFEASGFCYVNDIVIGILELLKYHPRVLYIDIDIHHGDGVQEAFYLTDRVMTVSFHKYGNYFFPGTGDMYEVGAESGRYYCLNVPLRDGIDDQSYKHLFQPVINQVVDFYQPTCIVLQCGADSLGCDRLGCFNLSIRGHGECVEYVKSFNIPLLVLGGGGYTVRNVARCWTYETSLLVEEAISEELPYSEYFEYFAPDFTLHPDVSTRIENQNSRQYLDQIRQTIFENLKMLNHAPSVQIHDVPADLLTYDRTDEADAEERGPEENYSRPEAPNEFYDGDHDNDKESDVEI
Chain of Histone deacetylase 3/Nuclear receptor corepressor 2 (HDAC3/NCoR2) (Q9Y618 whole entry, further chain): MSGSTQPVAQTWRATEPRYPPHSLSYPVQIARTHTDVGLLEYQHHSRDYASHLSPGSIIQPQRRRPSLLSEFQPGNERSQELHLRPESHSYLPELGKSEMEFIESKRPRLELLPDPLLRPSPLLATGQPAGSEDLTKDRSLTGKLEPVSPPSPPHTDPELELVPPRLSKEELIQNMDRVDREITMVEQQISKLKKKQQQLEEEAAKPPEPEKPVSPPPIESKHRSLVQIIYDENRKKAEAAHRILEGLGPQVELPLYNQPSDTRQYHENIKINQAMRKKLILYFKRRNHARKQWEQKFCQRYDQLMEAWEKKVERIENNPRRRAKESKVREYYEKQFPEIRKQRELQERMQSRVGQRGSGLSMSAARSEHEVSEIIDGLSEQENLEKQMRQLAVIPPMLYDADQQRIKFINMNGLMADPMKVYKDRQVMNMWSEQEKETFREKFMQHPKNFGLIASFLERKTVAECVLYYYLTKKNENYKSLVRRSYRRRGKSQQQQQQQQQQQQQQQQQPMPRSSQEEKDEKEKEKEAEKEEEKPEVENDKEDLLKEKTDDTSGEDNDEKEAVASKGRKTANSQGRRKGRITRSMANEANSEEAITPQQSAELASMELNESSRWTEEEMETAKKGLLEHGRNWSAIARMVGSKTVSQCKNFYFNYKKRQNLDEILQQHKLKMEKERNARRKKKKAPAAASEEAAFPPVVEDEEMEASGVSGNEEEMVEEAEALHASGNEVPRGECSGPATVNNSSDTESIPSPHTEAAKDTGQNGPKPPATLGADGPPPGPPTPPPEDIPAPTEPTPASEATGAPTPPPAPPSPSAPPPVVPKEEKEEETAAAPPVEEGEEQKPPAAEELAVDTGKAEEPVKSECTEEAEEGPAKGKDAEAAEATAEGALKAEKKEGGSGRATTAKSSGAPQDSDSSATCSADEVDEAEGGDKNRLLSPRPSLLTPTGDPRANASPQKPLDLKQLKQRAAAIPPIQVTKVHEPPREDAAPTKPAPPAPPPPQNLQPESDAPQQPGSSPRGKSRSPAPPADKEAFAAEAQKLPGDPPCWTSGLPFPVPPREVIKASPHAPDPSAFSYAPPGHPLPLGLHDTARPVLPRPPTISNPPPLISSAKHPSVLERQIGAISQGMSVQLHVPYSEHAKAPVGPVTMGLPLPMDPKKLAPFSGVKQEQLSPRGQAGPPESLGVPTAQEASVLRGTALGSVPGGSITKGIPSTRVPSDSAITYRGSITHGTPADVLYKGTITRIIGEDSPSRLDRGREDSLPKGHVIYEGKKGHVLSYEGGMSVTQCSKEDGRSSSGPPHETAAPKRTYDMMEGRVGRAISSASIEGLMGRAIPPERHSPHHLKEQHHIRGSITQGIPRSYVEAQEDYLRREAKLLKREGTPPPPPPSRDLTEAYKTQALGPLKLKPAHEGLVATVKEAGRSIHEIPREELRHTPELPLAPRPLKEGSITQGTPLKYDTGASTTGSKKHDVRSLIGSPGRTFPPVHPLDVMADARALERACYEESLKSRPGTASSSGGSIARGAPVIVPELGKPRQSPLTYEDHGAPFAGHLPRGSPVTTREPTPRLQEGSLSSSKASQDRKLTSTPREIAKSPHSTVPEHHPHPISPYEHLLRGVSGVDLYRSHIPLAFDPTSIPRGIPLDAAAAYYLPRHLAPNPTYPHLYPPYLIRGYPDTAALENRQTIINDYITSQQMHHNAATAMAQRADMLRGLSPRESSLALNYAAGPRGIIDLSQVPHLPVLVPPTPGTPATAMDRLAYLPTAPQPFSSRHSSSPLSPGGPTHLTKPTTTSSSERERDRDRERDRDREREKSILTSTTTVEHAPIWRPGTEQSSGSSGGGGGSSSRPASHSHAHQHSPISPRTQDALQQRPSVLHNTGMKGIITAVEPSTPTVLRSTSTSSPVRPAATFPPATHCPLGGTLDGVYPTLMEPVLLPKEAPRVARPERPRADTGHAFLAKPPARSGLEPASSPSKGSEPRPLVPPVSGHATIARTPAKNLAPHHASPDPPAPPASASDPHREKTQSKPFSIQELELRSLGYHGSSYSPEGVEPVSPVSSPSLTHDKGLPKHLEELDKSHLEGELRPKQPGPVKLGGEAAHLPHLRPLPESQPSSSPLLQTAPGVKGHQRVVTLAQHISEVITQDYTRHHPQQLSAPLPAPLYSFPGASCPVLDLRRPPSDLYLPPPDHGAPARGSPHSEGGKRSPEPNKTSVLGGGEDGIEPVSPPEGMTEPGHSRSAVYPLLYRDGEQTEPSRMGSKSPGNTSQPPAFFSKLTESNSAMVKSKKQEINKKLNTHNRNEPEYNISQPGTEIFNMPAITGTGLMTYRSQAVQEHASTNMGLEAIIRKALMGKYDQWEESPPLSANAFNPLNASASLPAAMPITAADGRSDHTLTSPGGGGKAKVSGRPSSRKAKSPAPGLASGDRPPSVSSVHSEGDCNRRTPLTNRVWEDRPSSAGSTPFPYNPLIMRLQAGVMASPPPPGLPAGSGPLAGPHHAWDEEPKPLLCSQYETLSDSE
T1 sequence (Q13547 whole entry): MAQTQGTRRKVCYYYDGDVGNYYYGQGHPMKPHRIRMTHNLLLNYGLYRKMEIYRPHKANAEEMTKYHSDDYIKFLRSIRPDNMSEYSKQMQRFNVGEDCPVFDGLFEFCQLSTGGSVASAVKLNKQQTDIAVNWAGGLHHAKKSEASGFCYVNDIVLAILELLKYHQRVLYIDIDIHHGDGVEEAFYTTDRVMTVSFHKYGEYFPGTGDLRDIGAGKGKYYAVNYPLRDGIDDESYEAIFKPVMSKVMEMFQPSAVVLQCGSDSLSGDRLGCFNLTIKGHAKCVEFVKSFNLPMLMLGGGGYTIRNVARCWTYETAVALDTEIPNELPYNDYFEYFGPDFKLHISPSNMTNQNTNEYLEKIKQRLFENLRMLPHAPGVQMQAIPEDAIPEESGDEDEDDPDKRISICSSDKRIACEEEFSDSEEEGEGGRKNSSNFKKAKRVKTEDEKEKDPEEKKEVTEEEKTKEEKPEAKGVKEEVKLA
Chain of Histone deacetylase 2 (Q92769 whole entry): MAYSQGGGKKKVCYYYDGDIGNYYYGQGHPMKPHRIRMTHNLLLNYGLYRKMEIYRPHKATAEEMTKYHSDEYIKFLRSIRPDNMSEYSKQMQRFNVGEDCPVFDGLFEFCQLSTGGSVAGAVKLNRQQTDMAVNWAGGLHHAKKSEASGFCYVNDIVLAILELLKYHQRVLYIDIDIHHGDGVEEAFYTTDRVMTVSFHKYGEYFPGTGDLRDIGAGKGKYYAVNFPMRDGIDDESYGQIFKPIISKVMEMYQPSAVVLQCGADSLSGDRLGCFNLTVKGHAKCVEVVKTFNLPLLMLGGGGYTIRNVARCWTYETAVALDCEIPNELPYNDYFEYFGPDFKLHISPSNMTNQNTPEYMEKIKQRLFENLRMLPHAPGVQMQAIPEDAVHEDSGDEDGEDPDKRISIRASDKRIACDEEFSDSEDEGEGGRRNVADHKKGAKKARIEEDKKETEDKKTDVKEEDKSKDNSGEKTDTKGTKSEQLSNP

| Compound | IC50 [3] | IC50 (Histone deacetylase 1 [5]) | further results |
| --- | --- | --- | --- |
| C#CCN(C)Cc1cc2cc(OCCCN3CCCCC3)ccc2n1C | > 10 µM | – | IC50 (Histone deacetylase 1 [1]): > 10 µM; IC50 [2]: > 10 µM |
| COc1ccc2c(ccn2S(=O)(=O)c2ccc(C(=O)NO)cc2)c1 | 0.168 µM | – | – |
| C#CCN1CCN(CCCOc2ccc3c(ccn3S(=O)(=O)c3ccc(C(=O)NO)cc3)c2)CC1 | – | – | IC50 [2]: 2.71 µM; IC50 (Histone deacetylase 2): 5.41 µM; inhibition at 1 µM [4]: 28% |
| O=C(NO)c1ccc(S(=O)(=O)n2ccc3cc(OCCCN4CCCCC4)ccc32)cc1 | – | 0.735 µM | IC50 [2]: 0.937 µM; IC50 (Histone deacetylase 2): 1.92 µM; inhibition at 1 µM [4]: < 10% |
| C#CCN1CCN(CCCOc2ccc3c(ccn3S(=O)(=O)c3ccc(C(=O)Nc4ccccc4N)cc3)c2)CC1 | > 3.33 µM | – | – |
| O=C(NO)c1ccc(S(=O)(=O)n2ccc3cc(OCc4ccccc4)ccc32)cc1 | – | 3.99 µM | – |
| CCCNNC(=O)c1ccc(S(=O)(=O)n2ccc3cc(OCCCN4CCCCC4)ccc32)cc1 | > 10 µM | – | inhibition at 1 µM [4]: < 10% |
| NNC(=O)c1ccc(S(=O)(=O)n2ccc3cc(OCCCN4CCCCC4)ccc32)cc1 | > 10 µM | > 10 µM | – |
| Nc1ccccc1NC(=O)c1ccc(S(=O)(=O)n2ccc3cc(OCc4ccccc4)ccc32)cc1 | > 10 µM | – | – |
| CCCN(CCC)NC(=O)c1ccc(S(=O)(=O)n2ccc3cc(OC)ccc32)cc1 | > 10 µM | – | IC50 (Histone deacetylase 1 [1]): > 10 µM |
| C#CCN1CCN(CCCOc2ccc3c(ccn3S(=O)(=O)c3ccc(C(=O)NN)cc3)c2)CC1 | > 10 µM | > 10 µM | – |
| COc1ccc2c(ccn2S(=O)(=O)c2ccc(C(=O)NN)cc2)c1 | > 10 µM | > 10 µM | – |
| C#CCN1CCN(CCCOc2ccc3c(ccn3S(=O)(=O)c3ccc(C(=O)NNCCC)cc3)c2)CC1 | > 10 µM | – | IC50 (Cholinesterase): 8.81 µM |
| NNC(=O)c1ccc(S(=O)(=O)n2ccc3cc(OCc4ccccc4)ccc32)cc1 | > 10 µM | > 10 µM | – |
| Nc1ccccc1NC(=O)c1ccc(S(=O)(=O)n2ccc3cc(OCCCN4CCCCC4)ccc32)cc1 | > 10 µM | – | – |
| CCCNNC(=O)c1ccc(S(=O)(=O)n2ccc3cc(OC)ccc32)cc1 | > 10 µM | – | inhibition at 1 µM [4]: < 10% |
